Experimental data taken from US20250179103A1, “6-OXODECAHYDROPYRROLO[1,2-A][1,5]DIAZOCINE AND 6-OXODECAHYDRO-4H-PYRROLO[2,1-D][1,5]THIAZOCINE DERIVATIVES AS STAT3 AND STAT6 MODULATORS FOR THE TREATMENT OF CANCER AND INFLAMMATORY CONDITIONS” (Recludix Pharma, Inc., priority 2022, published 2025).

Experiments:
[1] = biological target: T1, Recombinant STAT3 protein (STAT3(G127-I722)) (Homo sapiens, UniProt P40763); assay: STAT3 Fluorescence Polarization (FP) Assay; format: binding; settings: STAT3(G127-I722) 25 nM, probe 5-FAM-GpYLPQTV-NH2 2 nM, 45-minute incubation
T1 construct: Recombinant STAT3 protein (STAT3(G127-I722))
T1 sequence (P40763 127-722): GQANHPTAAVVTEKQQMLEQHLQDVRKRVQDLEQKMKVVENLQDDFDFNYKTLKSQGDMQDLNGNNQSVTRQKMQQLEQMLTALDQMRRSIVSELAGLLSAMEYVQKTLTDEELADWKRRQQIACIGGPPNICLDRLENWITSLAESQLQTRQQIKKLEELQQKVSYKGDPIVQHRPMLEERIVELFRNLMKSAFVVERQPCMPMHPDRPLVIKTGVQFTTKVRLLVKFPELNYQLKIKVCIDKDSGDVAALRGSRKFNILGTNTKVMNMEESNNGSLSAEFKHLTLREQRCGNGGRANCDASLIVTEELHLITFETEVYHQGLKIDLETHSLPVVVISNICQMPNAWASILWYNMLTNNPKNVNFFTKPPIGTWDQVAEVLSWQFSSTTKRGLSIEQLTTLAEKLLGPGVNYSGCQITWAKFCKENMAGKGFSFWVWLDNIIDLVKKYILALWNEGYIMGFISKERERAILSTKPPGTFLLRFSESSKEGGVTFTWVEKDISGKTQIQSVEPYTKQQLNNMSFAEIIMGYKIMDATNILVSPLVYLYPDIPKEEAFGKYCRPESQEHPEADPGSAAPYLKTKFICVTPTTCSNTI
Method in brief: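 STAT3(G127-I722), 25 nM, was mixed with 2 nM 5-FAM-GpYLPQTV-NH2 probe in HEPES pH 7.4 buffer with 1% DMSO and serially diluted compound. FP (mP) was read after 45 min at room temperature. IC50 came from nonlinear regression.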

[2] = biological target: T2, Recombinant STAT6 protein (STAT6(W123-T658)) (Homo sapiens, UniProt P42226); assay: STAT6 Fluorescence Polarization (FP) Assay; format: binding; settings: STAT6(W123-T658) 250 nM, probe 5-FAM-ApYKPFQDLI-NH2 2 nM, 45-minute incubation
T2 construct: Recombinant STAT6 protein (STAT6(W123-T658))
T2 sequence (P42226 123-658): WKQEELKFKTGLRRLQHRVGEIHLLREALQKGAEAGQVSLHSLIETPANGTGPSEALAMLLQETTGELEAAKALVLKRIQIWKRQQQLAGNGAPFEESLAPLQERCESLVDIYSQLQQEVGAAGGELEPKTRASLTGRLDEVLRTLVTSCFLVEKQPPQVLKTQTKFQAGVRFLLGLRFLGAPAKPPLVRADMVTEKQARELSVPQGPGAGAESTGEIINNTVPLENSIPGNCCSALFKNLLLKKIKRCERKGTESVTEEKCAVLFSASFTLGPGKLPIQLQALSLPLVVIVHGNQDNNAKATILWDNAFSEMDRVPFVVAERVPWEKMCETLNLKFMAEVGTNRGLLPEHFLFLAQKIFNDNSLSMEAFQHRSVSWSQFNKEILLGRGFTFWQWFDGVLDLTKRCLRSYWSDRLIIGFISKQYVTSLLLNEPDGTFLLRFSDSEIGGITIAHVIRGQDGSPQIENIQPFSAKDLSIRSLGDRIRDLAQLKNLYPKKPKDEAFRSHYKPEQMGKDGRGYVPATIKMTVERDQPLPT
Method in brief: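 Displacement of a fluorescent phosphotyrosine peptide (5-FAM-ApYKPFQDLI-NH2, 2 nM) from STAT6(W123-T658) (250 nM), 1% DMSO, pH 7.4 HEPES buffer. After 45 min at room temperature, polarization (mP) was plotted versus log compound concentration and fitted by nonlinear regression to give IC50.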

| IC50 [1] | IC50 [2] | SMILES |
| --- | --- | --- |
| 1 to 10 µM | 3 to 30 µM | CC(=O)N1CC[C@H]2CC[C@@H](C(=O)N(C)c3ccc4oncc4c3)N2C(=O)[C@@H](NC(=O)c2cc3cc(C(F)(F)P(=O)(O)O)ccc3s2)C1 [Compound 49, ((2-(((5S,8S,10aR)-3-acetyl-8-(benzo[d]isoxazol-5-yl(methyl)carbamoyl)-6-oxodecahydropyrrolo[1,2-a][1,5]diazocin-5-yl)carbamoyl)benzo[b]thiophen-5-yl)difluoromethyl)phosphonic acid] |
| > 10 µM | 3 to 30 µM | CC(=O)N1CC[C@H]2CC[C@@H](C(=O)N(C)c3ccccc3)N2C(=O)[C@@H](NC(=O)/C=C(\C)c2cccc(C(F)(F)P(=O)(O)O)c2)C1 [Compound 50, ((3-((E)-4-(((5S,8S,10aR)-3-acetyl-8-(methyl(phenyl)carbamoyl)-6-oxodecahydropyrrolo[1,2-a][1,5]diazocin-5-yl)amino)-4-oxobut-2-en-2-yl)phenyl)difluoromethyl)phosphonic acid] |
| > 10 µM | 3 to 30 µM | CC(=O)N1CC[C@H]2CC[C@@H](C(=O)N(C)c3ccccc3)N2C(=O)[C@@H](NC(=O)/C=C/c2cccc(C(F)(F)P(=O)(O)O)c2)C1 [Compound 51, ((3-((E)-3-(((5S,8S,10aR)-3-acetyl-8-(methyl(phenyl)carbamoyl)-6-oxodecahydropyrrolo[1,2-a][1,5]diazocin-5-yl)amino)-3-oxoprop-1-en-1-yl)phenyl)difluoromethyl)phosphonic acid] |
| 1 to 10 µM | 0.3 to 3 µM | CC(=O)N1CC[C@H]2CC[C@@H](C(=O)N(C)c3ccc(-c4ccccc4)cc3)N2C(=O)[C@@H](NC(=O)c2cc3cc(C(F)(F)P(=O)(O)O)ccc3[nH]2)C1 [Compound 53, ((2-(((5S,8S,10aR)-8-([1,1′-biphenyl]-4-yl(methyl)carbamoyl)-3-acetyl-6-oxodecahydropyrrolo[1,2-a][1,5]diazocin-5-yl)carbamoyl)-1H-indol-5-yl)difluoromethyl)phosphonic acid] |
| 1 to 10 µM | 0.3 to 3 µM | CC(=O)N1CC[C@H]2CC[C@@H](C(=O)N(C)Cc3ccccc3)N2C(=O)[C@@H](NC(=O)c2cc3cc(C(F)(F)P(=O)(O)O)ccc3[nH]2)C1 [Compound 54, ((2-(((5S,8S,10aR)-3-acetyl-8-(benzyl(methyl)carbamoyl)-6-oxodecahydropyrrolo[1,2-a][1,5]diazocin-5-yl)carbamoyl)-1H-indol-5-yl)difluoromethyl)phosphonic acid] |
| 1 to 10 µM | 0.3 to 3 µM | CC(=O)N1CC[C@H]2CC[C@@H](C(=O)N(c3ccccc3)c3ccccc3)N2C(=O)[C@@H](NC(=O)c2cc3cc(C(F)(F)P(=O)(O)O)ccc3[nH]2)C1 [Compound 55, ((2-(((5S,8S,10aR)-3-acetyl-8-(diphenylcarbamoyl)-6-oxodecahydropyrrolo[1,2-a][1,5]diazocin-5-yl)carbamoyl)-1H-indol-5-yl)difluoromethyl)phosphonic acid] |
| 1 to 10 µM | 0.3 to 3 µM | CC(=O)N1CC[C@H]2CC[C@@H](C(=O)N(Cc3ccccc3)c3ccccc3)N2C(=O)[C@@H](NC(=O)c2cc3cc(C(F)(F)P(=O)(O)O)ccc3[nH]2)C1 [Compound 56, ((2-(((5S,8S,10aR)-3-acetyl-8-(benzyl(phenyl)carbamoyl)-6-oxodecahydropyrrolo[1,2-a][1,5]diazocin-5-yl)carbamoyl)-1H-indol-5-yl)difluoromethyl)phosphonic acid] |
| 1 to 10 µM | 0.3 to 3 µM | CC(=O)N1CC[C@H]2CC[C@@H](C(=O)N3CCCc4ccccc43)N2C(=O)[C@@H](NC(=O)c2cc3cc(C(F)(F)P(=O)(O)O)ccc3[nH]2)C1 [Compound 57, ((2-(((5S,8S,10aR)-3-acetyl-6-oxo-8-(1,2,3,4-tetrahydroquinoline-1-carbonyl)decahydropyrrolo[1,2-a][1,5]diazocin-5-yl)carbamoyl)-1H-indol-5-yl)difluoromethyl)phosphonic acid] |
| 0.1 to 1 µM | 0.3 to 3 µM | CC(=O)N1CC[C@H]2CC[C@@H](C(=O)Nc3ccc(-c4ccccc4)cc3)N2C(=O)[C@@H](NC(=O)c2cc3cc(C(F)(F)P(=O)(O)O)ccc3[nH]2)C1 [Compound 58, ((2-(((5S,8S,10aR)-8-([1,1′-biphenyl]-4-ylcarbamoyl)-3-acetyl-6-oxodecahydropyrrolo[1,2-a][1,5]diazocin-5-yl)carbamoyl)-1H-indol-5-yl)difluoromethyl)phosphonic acid] |
| 0.1 to 1 µM | 0.3 to 3 µM | CC(=O)N1CC[C@H]2CC[C@@H](C(=O)N3CC(C#N)C4(C3)C(=O)Nc3ccccc34)N2C(=O)[C@@H](NC(=O)c2cc3cc(C(F)(F)P(=O)(O)O)ccc3s2)C1 (stereo partly drawn) [Compound 61, ((2-(((5S,8S,10aR)-3-acetyl-8-(4′-cyano-2-oxospiro[indoline-3,3′-pyrrolidine]-1′-carbonyl)-6-oxodecahydropyrrolo[1,2-a][1,5]diazocin-5-yl)carbamoyl)benzo[b]thiophen-5-yl)difluoromethyl)phosphonic acid] |
| 1 to 10 µM | 0.3 to 3 µM | CC(=O)N1CC[C@H]2CC[C@@H](C(=O)N3CCN(Cc4ccccc4)C(C#N)C3)N2C(=O)[C@@H](NC(=O)c2cc3cc(C(F)(F)P(=O)(O)O)ccc3s2)C1 (stereo partly drawn) [Compound 62, ((2-(((5S,8S,10aR)-3-acetyl-8-(4-benzyl-3-cyanopiperazine-1-carbonyl)-6-oxodecahydropyrrolo[1,2-a][1,5]diazocin-5-yl)carbamoyl)benzo[b]thiophen-5-yl)difluoromethyl)phosphonic acid] |
| 1 to 10 µM | 0.3 to 3 µM | CC(=O)N1CC[C@H]2CC[C@@H](C(=O)N3CCN(C4CC4)C(C#N)C3)N2C(=O)[C@@H](NC(=O)c2cc3cc(C(F)(F)P(=O)(O)O)ccc3s2)C1 (stereo partly drawn) [Compound 63, ((2-(((5S,8S,10aR)-3-acetyl-8-(3-cyano-4-cyclopropylpiperazine-1-carbonyl)-6-oxodecahydropyrrolo[1,2-a][1,5]diazocin-5-yl)carbamoyl)benzo[b]thiophen-5-yl)difluoromethyl)phosphonic acid] |
| 1 to 10 µM | 0.3 to 3 µM | CC(=O)N1CC[C@H]2CC[C@@H](C(=O)N3CC(C#N)C4(CCC4)C3)N2C(=O)[C@@H](NC(=O)c2cc3cc(C(F)(F)P(=O)(O)O)ccc3s2)C1 (stereo partly drawn) [Compound 64, ((2-(((5S,8S,10aR)-3-acetyl-8-(8-cyano-6-azaspiro[3.4]octane-6-carbonyl)-6-oxodecahydropyrrolo[1,2-a][1,5]diazocin-5-yl)carbamoyl)benzo[b]thiophen-5-yl)difluoromethyl)phosphonic acid] |
| 1 to 10 µM | 0.3 to 3 µM | CC(=O)N1CC[C@H]2CC[C@@H](C(=O)Nc3cc(C)c4[nH]ncc4c3)N2C(=O)[C@@H](NC(=O)c2cc3cc(C(F)(F)P(=O)(O)O)ccc3s2)C1 [Compound 67, ((2-(((5S,8S,10aR)-3-acetyl-8-((7-methyl-1H-indazol-5-yl)carbamoyl)-6-oxodecahydropyrrolo[1,2-a][1,5]diazocin-5-yl)carbamoyl)benzo[b]thiophen-5-yl)difluoromethyl)phosphonic acid] |
| 0.1 to 1 µM | 0.3 to 3 µM | CC(=O)N1CC[C@H]2CC[C@@H](C(=O)Nc3ccc4onc(C)c4c3)N2C(=O)[C@@H](NC(=O)c2cc3cc(C(F)(F)P(=O)(O)O)ccc3s2)C1 [Compound 68, ((2-(((5S,8S,10aR)-3-acetyl-8-((3-methylbenzo[d]isoxazol-5-yl)carbamoyl)-6-oxodecahydropyrrolo[1,2-a][1,5]diazocin-5-yl)carbamoyl)benzo[b]thiophen-5-yl)difluoromethyl)phosphonic acid] |
| 1 to 10 µM | 0.3 to 3 µM | CC(=O)N1CC[C@H]2CC[C@@H](C(=O)Nc3ccc4nccnc4c3)N2C(=O)[C@@H](NC(=O)c2cc3cc(C(F)(F)P(=O)(O)O)ccc3s2)C1 [Compound 69, ((2-(((5S,8S,10aR)-3-aceytl-6-oxo-8-(quinoxalin-6-ylcarbamoyl)decahydropyrrolo[1,2-a][1,5]diazocin-5-yl)carbamoyl)benzo[b]thiophen-5-yl)difluoromethyl)phosphonic acid] |
| 1 to 10 µM | 0.3 to 3 µM | CC(=O)N1CC[C@H]2CC[C@@H](C(=O)Nc3ccc(S(C)(=O)=O)cc3)N2C(=O)[C@@H](NC(=O)c2cc3cc(C(F)(F)P(=O)(O)O)ccc3s2)C1 [Compound 70, ((2-(((5S,8S,10aR)-3-acetyl-8-((4-(methylsulfonyl)phenyl)carbamoyl)-6-oxodecahydropyrrolo[1,2-a][1,5]diazocin-5-yl)carbamoyl)benzo[b]thiophen-5-yl)difluoromethyl)phosphonic acid] |
